Reference: paper PMC6327263, “Evaluation of Novel 3-Hydroxyflavone Analogues as HDAC Inhibitors against Colorectal Cancer” (Advances in Pharmacological Sciences, 2018)
Where “and” joins values, the source holds several entries; their conditions need not be identical. Equal entries are not always repeated. Marks after values point to notes of the source that are not given here.

Experiments:
[1] = system: VERO cells; assay: MTT cytotoxicity assay, Vero; assay type: cell-based, African green monkey; conditions: Chlorocebus sabaeus, 48 h, mean ± SEM of three experiments
Description: (§1) Human colorectal carcinoma cell line (HCT116) and African green monkey kidney epithelial cells (VERO) were obtained from National Centre for Cell Science, Pune, MH, India. For their maintenance, the cells were grown in Dulbecco's Modified Eagle's Medium (DMEM) which was supplemented with 10% fetal bovine serum (FBS) and 1 × penicillin/streptomycin at 37°C in CO2 incubator (NU-5501E/G, NuAire Inc., Plymouth, MN, USA) in a humidified atmosphere of 5% CO2 and 95% air.
(§2) Cytotoxicity for the synthesized analogues was determined using MTT assay. In brief, HCT116 and VERO cells were harvested from the tissue culture flask and seeded in sterile 96 well plates at a density of 5000 cells per well. After overnight adherence, different concentrations of test compounds were added and incubated for 48 h. Next, 50 µl of the MTT reagent (HiMedia Laboratories, Mumbai, India) (2 mg/ml in the sterile phosphate buffer saline (PBS)) was added into each well and incubated for 3 h. The formazan crystals formed were solubilized using 100% dimethyl sulfoxide (DMSO), and the optical density was measured at 540 nm using the microplate reader (ELx800, BioTek Instruments Inc., Winooski, VT, USA).

[2] = system: HDAC enzyme in HCT116 cells; assay: Whole cell HDAC inhibition assay; assay type: cell-based; conditions: Homo sapiens, HCT-116, HCT116, 18 h treatment, mean ± SEM of three experiments
Description: Confluent HCT116 cells were harvested and seeded in 96 well sterile black well plates at a density of 2000 cells per well and incubated overnight. Furthermore, the cells were treated with different concentrations of test compounds for a period of 18 h followed by the addition of […] BOC-Ac-Lys-AMC substrate and incubated for 1 h. […] The reaction was then allowed to proceed for 15 min at 37°C. Finally, the fluorescence intensity was measured at 360 nm excitation and 460 nm emission using a fluorescence microplate reader (FLx800, BioTek Instruments Inc., Winooski, VT, USA).

[3] = system: HCT116 cells; assay: MTT cytotoxicity assay, HCT116; assay type: cell-based, human; conditions: Homo sapiens, HCT-116, 48 h, mean ± SEM of three experiments
Description: as §1, §2

[4] = system: DMH-induced colon cancer; assay type: in vivo, Wistar rats; conditions: 5-FU 10 mg/kg i.p.
Description: The two test compounds (QMJ-2 and QMJ-5) and quercetin were suspended in 0.25% w/v sodium carboxymethyl cellulose (CMC) and were administered orally (p.o.). 5-Fluorouracil (5-FU) which was used as a standard was procured in the form of injection and was administered intraperitonially (i.p.).
Colon cancer in experimental animals was induced using the highly specific carcinogen DMH, with few modifications from the previously described procedure. DMH was administered at a dose of 30 mg/kg i.p. once a week for 20 weeks. The incidence of aberrant crypt foci (ACF) and adenocarcinoma were confirmed by sacrificing few animals after 20 weeks of induction with DMH. Furthermore, the animals were randomized into five experimental groups, and various treatments were administered for a period of 21 days followed by the assessment of different parameters in the experimental animals.
(1) Experimental Groups • Group 1: animals received 0.25% CMC in water p.o. • Group 2: animals received 0.25% CMC in water p.o. (DMH control) • Group 3: animals received 5-FU at 10 mg/kg i.p. • Group 4: animals received quercetin at 100 mg/kg p.o. • Group 5: animals received QMJ-2 at 100 mg/kg p.o. • Group 6: animals received QMJ-5 at 100 mg/kg p.o.
(2) ACF Formation and Adenocarcinoma Incidence. The entire colon was excised from the experimental animals and was used to study the incidence of adenocarcinoma. The count and size were noted from each animal. For ACF formation, the distal part of the colon was excised, and the tissue was then cut open and fixed with 10% buffered formalin for 12 h. Following this, the tissue was stained with 0.1% methylene blue in PBS for 5 min. The tissues were then observed under microscope for ACF formation and were calculated as the number of counts/5 cm^2 in colon tissue.
(3) Colon Weight/Length Ratio and Organ Index. Length of the excised colon was measured in centimeters, and weight was measured in g. Colon weight/length ratio was then calculated. For the determination of organ index, major organs including spleen, liver, and kidney of the experimental animals were weighed in g and the respective index was calculated. […]

[5] = system: caspase 3/7 in HCT116 cells; assay: Caspase 3/7 activation assay; assay type: cell-based, human; conditions: SAHA 5 µM, quercetin 100 µM, QMJ-2 100 µM, QMJ-5 50 µM, normal control 24.60%
Description: The downstream signaling pathway of apoptosis was determined using the caspase 3/7 activation assay. In brief, as per the caspase 3/7 activation kit protocol (#MCH100108), 1 × 10^6 cells were seeded in the cell culture dish and after overnight adherence, were incubated with the test compounds. The cells were detached by trypsinization, centrifuged, and washed with PBS. Cell suspension (50 µl) was mixed with the caspase 3/7 antibody reagent (5 µl) and incubated at 37°C temperature for 30 min. 7-AAD (7-amino-actinomycin D) working solution (150 µl) was added, and stained cells were then analyzed in Muse Cell Analyzer (#0500-3115 Merck Millipore).

[6] = system: HDAC8; assay: Western blotting, HDAC8 expression; assay type: cell-based, human; conditions: HCT116 cells, 24 h, compared to normal control
Description: (§3) After various treatments for 24 h, cells were lysed, and protein quantification of the lysates was estimated using the BCA™ kit (Thermo Fisher Scientific Inc., Waltham, MA, USA). Proteins samples (30 µg) were resolved on a 10% SDS-PAGE and transferred onto a PVDF membrane and blocked with 5% nonfat milk in TBST (tris-buffered saline with Tween-20) buffer for 1 h followed by washing in TBST buffer. The membrane was then probed with primary antibodies (GAPDH, HDAC8, p21^Waf1/Cip1, and acetyl-histone H3[Ac-Lys^9]) and incubated overnight at 4°C. The membrane was washed with TBST buffer and incubated with horseradish peroxidase-conjugated secondary antibody for 1 h at room temperature. Signal was captured using SuperSignal™ West Pico Plus chemiluminescent substrate (Thermo Fischer Scientific Inc., Waltham, MA, USA) on gel documentation system (G : BOX Chemi XRQ, Syngene).

[7] = system: HCT116 cells; assay: Cell cycle analysis; assay type: cell-based, human; conditions: HCT116, 48 h; SAHA 5 µM, quercetin 100 µM, QMJ-2 100 µM, QMJ-5 50 µM; normal control 29.2%
Description: Cell cycle analysis was performed to estimate the effect of synthesized analogues on the different phases of the cell cycle. In brief, 1 × 10^6 cells were seeded in the cell culture dish and allowed to attach overnight followed by incubation with test compounds. After 48 h, the cells were detached by trypsinization, centrifuged, and washed with PBS. The cell pellets were fixed in 70% v/v ice cold ethanol and stored at −20°C for 24 h. After fixing, the pellets were dislodged in PBS and stained with propidium iodide solution and analyzed using Accuri C6 flow cytometer (BD Biosciences, San Jose, CA, USA).

[8] = system: HCT116 cells; assay: Annexin V staining; assay type: cell-based, human; conditions: SAHA 5 µM, quercetin 100 µM, QMJ-2 100 µM, QMJ-5 50 µM, normal control 21.30%
Description: Mechanism of cell death induced by synthesized analogues was determined using annexin V staining. In brief, as per annexin V flow cytometry kit protocol (#MCH100105), 1 × 10^6 cells were seeded in a cell culture dish and after overnight adherence, were incubated with test compounds. Cells were then detached by trypsinization, centrifuged, and washed with PBS. Cell suspension (100 µl) was mixed with Muse annexin V reagent (100 µl) and incubated for 20 min at room temperature. The stained cells were quantitatively analyzed for live, early, and late apoptosis using Muse cell analyzer (#0500-3115 Merck Millipore).

[9] = system: acetyl histone H3K9; assay: Western blotting, acetyl histone H3K9 expression; assay type: cell-based, human; conditions: HCT116 cells, 24 h, compared to normal control
Description: as §3, with “Syngene). The protein band densities were estimated using the software ImageJ (version 1.46r, NIH, Bethesda, MD, USA).” for “Syngene).”

[10] = system: p21^Waf1/Cip1; assay: Western blotting, p21Waf1/Cip1 expression; assay type: cell-based, human; conditions: HCT116 cells, 24 h, compared to normal control
Description: as §3

Structure (SMILES) | IC50 [1] | IC50 [2] | IC50 [3] | also measured
CN(C)c1ccc(-c2oc3ccccc3c(=O)c2O)cc1 [QMJ-1, 2-[4(Dimethylamino)phenyl]-3-hydroxy-4H-1-benzopyran-4-one] | 186 ± 4.9 µM | 1023 ± 5.2 µM | 102 ± 1.8 µM | –
O=c1[nH]cc(F)c(=O)[nH]1 [5-FU, 5-Fluorouracil, reference compound] | – | – | – | ACF/5 cm^2 ([4]; 21 days treatment, quercetin, QMJ-2, QMJ-5 100 mg/kg p.o., DMH control 25 ± 2.1, mean ± SEM of six animals): 10 ± 1.3 /5 cm^2 and 10 ± 1.3^a /5 cm^2; colon weight/length ratio ([4]; compared with DMH control, others 100 mg/kg p.o., 21 days): significantly (p < 0.05) reduced; Adenocarcinoma ([4]; count in colon, 21 days treatment, quercetin, QMJ-2, QMJ-5 100 mg/kg p.o., DMH control 17 ± 1.7, mean ± SEM of six animals): 8 ± 1.1^a
Cc1ccc2oc(-c3ccc(N(C)C)cc3)c(O)c(=O)c2c1 [QMJ-3, 2-[4-(Dimethylamino)phenyl]-3-hydroxy-6-methyl-4H-1-benzopyran-4-one] | 80.1 ± 3.7 µM | 1124 ± 6.2 µM | 70.3 ± 4.1 µM | –
COc1ccc2c(=O)c(O)c(-c3ccc(C)cc3)oc2c1 [QMJ-6, 3-Hydroxy-7-methoxy-2-(4-methylphenyl)-4H-1-benzopyran-4-one] | 153 ± 2.3 µM | 984.2 ± 2.5 µM | 94 ± 2.1 µM | –
O=C(CCCCCCC(=O)Nc1ccccc1)NO [SAHA, reference compound] | – | – | – | percentage of apoptotic cells (Apoptotic/Dead, caspase 3/7) [5]: 56.30%; HDAC8 expression [6]: significant reduction; percentage of cells in G2/M phase [7]: 37.5%; percentage of cells undergoing late apoptosis (Late Apop./Dead, annexin V) [8]: 27.65%; expression of acetylated histone H3K9 [9]: significant increase; expression of p21^Waf1/Cip1 [10]: increased
Cc1ccc(-c2oc3ccc(C)cc3c(=O)c2O)cc1 [QMJ-4, 3-Hydroxy-6-methyl-2-(4-methylphenyl)-4H-1-benzopyran-4-one] | > 400 µM | 1011 ± 3.4 µM | > 400 µM | –
